# Experimental data: patent US10633419B2, “Immunomodulators” (BRISTOL-MYERS SQUIBB COMPANY, priority 2014, dated 2020)
# Positions of bridges follow the written chain, without caps; N, C: chain ends. Non-standard residues stand in square brackets, D forms with d. Residues, ends and D or L forms follow the SMILES beside them. *: point of attachment. δOrn(Nα-Octadecanedioyl) = O=C(O)CCCCCCCCCCCCCCCCC(=O)N[C@@H](CCCN*)C(=O)O; Dap(Nα-HOOC(CH2)16CO)OH = O=C(O)CCCCCCCCCCCCCCCCC(=O)N[C@@H](CN*)C(=O)O; X6 = O=C(O)CCCCCCCCCCCCCCCCC(=O)N[C@@H](CCC(=O)NCCCOCCOCCOCCCN*)C(=O)O; X11 = O=C(O)CCCCCCCCCCCCC(=O)N[C@@H](CCC(=O)NCCCOCCOCCOCCCN*)C(=O)O; Trp(1-CH2COOH) = N[C@@H](Cc1cn(CC(=O)O)c2ccccc12)C(=O)O; Phe(3,4,5-F3) = N[C@@H](Cc1cc(F)c(F)c(F)c1)C(=O)O; Phe(4-F) = N[C@@H](Cc1ccc(F)cc1)C(=O)O; d(cisHyp) = O=C(O)[C@H]1C[C@@H](O)CN1; NH(CH2)12COOH = O=C(O)CCCCCCCCCCCCN*; PEG6 = NCCOCCOCCOCCOCCOCCOCCC(=O)O; Hyp = O=C(O)[C@@H]1C[C@@H](O)CN1; NMeF = CN[C@@H](Cc1ccccc1)C(=O)O; Undecanoyl = CCCCCCCCCCC(=O)*; NMeNle = CCCC[C@H](NC)C(=O)O; Pip = O=C(O)[C@@H]1CCCCN1; NMeA = CN[C@@H](C)C(=O)O; Pra = C#CC[C@H](N)C(=O)O; Dab = NCC[C@H](N)C(=O)O; Dap = NC[C@H](N)C(=O)O
# Target: T1, PD-L1 (Homo sapiens, UniProt Q9NZQ7)
# T1 construct: hPDL1(19-239)-TVMV-His; made in house; host or cells: HEK293T
# T1 sequence (Q9NZQ7 with tags, fused parts or gaps): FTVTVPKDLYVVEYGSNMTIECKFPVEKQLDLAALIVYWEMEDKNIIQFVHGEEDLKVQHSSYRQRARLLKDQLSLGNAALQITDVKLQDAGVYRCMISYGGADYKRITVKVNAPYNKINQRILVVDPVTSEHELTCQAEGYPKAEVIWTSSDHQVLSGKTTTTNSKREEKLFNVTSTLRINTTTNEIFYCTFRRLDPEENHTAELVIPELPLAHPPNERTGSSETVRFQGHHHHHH
# Experiment: PD-1/PD-L1 Homogenous Time-Resolved Fluorescence (HTRF) binding assay (PD-1-Ig/PD-L1-His)
# Details: inhibition of PD-1-Ig binding to PD-L1-TVMV-His; value given as number; read-out: HTRF IC50
# In short: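 Inhibitors pre-incubated 15 min with PD-L1-His (10 nM final), then PD-1-Ig (20 nM final) added for 15 min in dPBS/0.1% BSA/0.05% Tween-20. Eu-cryptate anti-Ig (1 nM) and APC anti-His (20 nM) added, 30 min equilibration, 665/620 nm HTRF ratio read.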
row,Compound,IC50 [nM]
1,CCCCCCCCCCC(=O)NCCCC[C@H](NC(=O)[C@H](CC(=O)O)NC(=O)CNC(=O)CNC(=O)CNC(=O)[C@@H]1CSCC(=O)N[C@@H](Cc2ccc(O)cc2)C(=O)N(C)[C@@H](C)C(=O)N[C@@H](CC(N)=O)C(=O)N2CCC[C@H]2C(=O)N[C@@H](CCN)C(=O)N[C@@H](CC(C)C)C(=O)N2C[C@H](O)C[C@H]2C(=O)N[C@@H](Cc2c[nH]c3ccccc23)C(=O)N[C@@H](CO)C(=O)N[C@@H](Cc2c[nH]c3ccccc23)C(=O)N(C)[C@@H](CCCC)C(=O)N(C)[C@@H](CCCC)C(=O)N[C@@H](CCCNC(=N)N)C(=O)N1)C(N)=O [Example 11003] ({CH2CO}-Y[NMeA]NP[Dab]L[Hyp]WSW[NMeNle][NMeNle]RCGGGDK(Undecanoyl)-NH2; thioether N-14),54.6
2,CCCCCCCCCCC(=O)NCCCC[C@H](NC(=O)[C@H](CC(=O)O)NC(=O)CNC(=O)[C@@H]1CSCC(=O)N[C@@H](Cc2ccc(O)cc2)C(=O)N(C)[C@@H](C)C(=O)N[C@@H](CC(N)=O)C(=O)N2CCC[C@H]2C(=O)N[C@@H](Cc2cnc[nH]2)C(=O)N[C@@H](CCC(=O)O)C(=O)N2C[C@H](O)C[C@H]2C(=O)N[C@@H](Cc2c[nH]c3ccccc23)C(=O)N[C@@H](CO)C(=O)N[C@@H](Cc2c[nH]c3ccccc23)C(=O)N(C)[C@@H](CCCC)C(=O)N(C)[C@@H](CCCC)C(=O)N[C@@H](CC(C)C)C(=O)N1)C(N)=O [Example 11009] ({CH2CO}-Y[NMeA]NPHE[Hyp]WSW[NMeNle][NMeNle]LCGDK(Undecanoyl)-NH2; thioether N-14),91.4

# Same assay, conditions: inhibition of PD-1-Ig binding to PD-L1-TVMV-His; value given as range class; read-out: HTRF IC50
row,Compound,IC50 [nM]
1,CCCC[C@H]1C(=O)N(C)[C@@H](CCCC)C(=O)N[C@@H](CCC(=O)O)C(=O)N[C@H](C(=O)NCC(=O)N[C@@H](Cc2cn(CC[C@H](NC(=O)CCCCCCCCCCCCCCC(=O)O)C(=O)O)nn2)C(=O)N[C@@H](CC(=O)O)C(N)=O)CSCC(=O)N[C@@H](Cc2ccc(O)cc2)C(=O)N(C)[C@@H](C)C(=O)N[C@@H](CC(=O)O)C(=O)N2CCC[C@H]2C(=O)N[C@@H](Cc2c[nH]cn2)C(=O)N[C@@H](CCCCN)C(=O)N2C[C@H](O)C[C@H]2C(=O)N[C@@H](Cc2c[nH]c3ccccc23)C(=O)N[C@@H](CCCCN)C(=O)N[C@@H](Cc2cn(CC(=O)O)c3ccccc23)C(=O)N1C [Example 14071],10 to 99
2,CCCC[C@H]1C(=O)N(C)[C@@H](CCCC)C(=O)N[C@@H](CC(C)C)C(=O)N[C@H](C(=O)NCC(=O)N[C@@H](CCC(=O)NCCC[C@H](NC(=O)CCCCCCCCCCCCCCCCC(=O)O)C(=O)O)C(=O)O)CSCC(=O)N[C@@H](Cc2ccc(F)cc2)C(=O)N2CCCC[C@H]2C(=O)N[C@@H](CC(=O)O)C(=O)N2CCC[C@H]2C(=O)N[C@@H](CN)C(=O)N[C@@H](CC(C)C)C(=O)N2C[C@H](O)C[C@H]2C(=O)N[C@@H](Cc2c[nH]c3ccccc23)C(=O)N[C@@H](CCN)C(=O)N[C@@H](Cc2cn(CC(=O)O)c3ccccc23)C(=O)N1C [Example 13146] ({CH2CO}-[Phe(4-F)][Pip]DP[Dap]L[Hyp]W[Dab][Trp(1-CH2COOH)][NMeNle][NMeNle]LCGE(δOrn(Nα-Octadecanedioyl))-OH; thioether N-14),10 to 99
3,CCCC[C@H]1C(=O)N(C)[C@@H](CCCC)C(=O)N[C@@H](CC(C)C)C(=O)N[C@H](C(=O)NCC(=O)NCC(=O)NCC(=O)NCCCCCCCCCCCCC(=O)O)CSCC(=O)N[C@@H](Cc2ccc(O)cc2)C(=O)N(C)[C@@H](C)C(=O)N[C@@H](CC(N)=O)C(=O)N2CCC[C@H]2C(=O)N[C@@H](CN)C(=O)N[C@@H](CC(C)C)C(=O)N2C[C@H](O)C[C@H]2C(=O)N[C@@H](Cc2c[nH]c3ccccc23)C(=O)N[C@@H](CCN)C(=O)N[C@@H](Cc2cn(CC(=O)O)c3ccccc23)C(=O)N1C [Example 11215] ({CH2CO}-Y[NMeA]NP[Dap]L[Hyp]W[Dab][Trp(1-CH2COOH)][NMeNle][NMeNle]LCGGG-{NH(CH2)12COOH}; thioether N-14),10 to 99
4,CCCC[C@H]1C(=O)N(C)[C@@H](CCCC)C(=O)N[C@@H](CC(C)C)C(=O)N[C@H](C(=O)NCC(=O)N[C@@H](CCC(=O)O)C(=O)NCCCOCCOCCOCCCNC(=O)CC[C@H](NC(=O)CCCCCCCCCCCCC(=O)O)C(=O)O)CSCC(=O)N[C@@H](Cc2ccc(O)cc2)C(=O)N(C)[C@@H](C)C(=O)N[C@@H](CC(N)=O)C(=O)N2CCC[C@H]2C(=O)N[C@@H](CN)C(=O)N[C@@H](CC(C)C)C(=O)N2C[C@H](O)C[C@H]2C(=O)N[C@@H](Cc2c[nH]c3ccccc23)C(=O)N[C@@H](CCN)C(=O)N[C@@H](Cc2cn(CC(=O)O)c3ccccc23)C(=O)N1C [Example 11253] ({CH2CO}-Y[NMeA]NP[Dap]L[Hyp]W[Dab][Trp(1-CH2COOH)][NMeNle][NMeNle]LCGE-X11; thioether N-14),0.3 to 9.9
5,CCCC[C@H]1C(=O)N(C)[C@@H](CCCC)C(=O)N[C@@H](CC(C)C)C(=O)N[C@H](C(=O)NCC(=O)N[C@@H](CC(=O)O)C(=O)N[C@@H](CC(=O)O)C(=O)NCCCCCCCCCCCCC(=O)O)CSCC(=O)N[C@@H](Cc2ccc(O)cc2)C(=O)N(C)[C@@H](C)C(=O)N[C@@H](CC(=O)O)C(=O)N2CCC[C@H]2C(=O)N[C@@H](Cc2cnc[nH]2)C(=O)N[C@@H](CCCCN)C(=O)N2C[C@H](O)C[C@H]2C(=O)N[C@@H](Cc2c[nH]c3ccccc23)C(=O)N[C@@H](CCCCN)C(=O)N[C@@H](Cc2cn(CC(=O)O)c3ccccc23)C(=O)N1C [Example 11218] ({CH2CO}-Y[NMeA]DPHK[Hyp]WK[Trp(1-CH2COOH)][NMeNle][NMeNle]LCGDD-{NH(CH2)12COOH}; thioether N-14),10 to 99
6,CCCC[C@H]1C(=O)N(C)[C@@H](CCCC)C(=O)N[C@@H](CC(C)C)C(=O)N[C@H](C(=O)NCCOCCOCCOCCOCCOCCOCCC(=O)O)CSCC(=O)N[C@@H](Cc2ccc(O)cc2)C(=O)N(C)[C@@H](C)C(=O)N[C@@H](CC(N)=O)C(=O)N2CCC[C@H]2C(=O)N[C@@H](Cc2cnc[nH]2)C(=O)N[C@@H](CCC(=O)O)C(=O)N2C[C@H](O)C[C@@H]2C(=O)N[C@@H](Cc2c[nH]c3ccccc23)C(=O)N[C@@H](CCN)C(=O)N[C@@H](Cc2cn(CC(=O)O)c3ccccc23)C(=O)N1C [Example 11044] ({CH2CO}-Y[NMeA]NPHE[d(cisHyp)]W[Dab][Trp(1-CH2COOH)][NMeNle][NMeNle]LC[PEG6]-OH; thioether N-14),10 to 99
7,"C#CC[C@H](NC(=O)CNC(=O)[C@@H]1CSCC(=O)N[C@@H](Cc2cc(F)c(F)c(F)c2)C(=O)N(C)[C@@H](Cc2ccccc2)C(=O)N(C)[C@@H](CCCC)C(=O)N2C[C@H](O)C[C@@H]2C(=O)N[C@@H](CC(=O)O)C(=O)N[C@@H](C(C)C)C(=O)N(C)[C@@H](Cc2ccccc2)C(=O)N[C@@H](CC(=O)O)C(=O)N2CCC[C@@H]2C(=O)N[C@@H](Cc2c[nH]c3ccccc23)C(=O)N[C@@H](Cc2ccc(O)cc2)C(=O)N[C@@H](CC(C)C)C(=O)N1)C(N)=O [INT 1400L, ClAc-F3Phe-mPhe-mNle-dHyp-Asp-Val-mPhe-Asp-dPro-Trp-Tyr-Leu-Cys-Gly-[(S)-propargylglycine]] ({CH2CO}-[Phe(3,4,5-F3)][NMeF][NMeNle][d(cisHyp)]DV[NMeF]D[dP]WYLCG[Pra]-NH2; thioether N-13)",10 to 99
8,C#CC[C@H](NC(=O)CNC(=O)CNC(=O)CNC(=O)[C@@H]1CSCC(=O)N[C@@H](Cc2ccc(O)cc2)C(=O)N(C)[C@@H](C)C(=O)N[C@@H](CC(N)=O)C(=O)N2CCC[C@H]2C(=O)N[C@@H](CN)C(=O)N[C@@H](CC(C)C)C(=O)N2C[C@H](O)C[C@H]2C(=O)N[C@@H](Cc2c[nH]c3ccccc23)C(=O)N[C@@H](CCN)C(=O)N[C@@H](Cc2cn(CC(=O)O)c3ccccc23)C(=O)N(C)[C@@H](CCCC)C(=O)N(C)[C@@H](CCCC)C(=O)N[C@@H](CC(C)C)C(=O)N1)C(=O)O [INT130AB] ({CH2CO}-Y[NMeA]NP[Dap]L[Hyp]W[Dab][Trp(1-CH2COOH)][NMeNle][NMeNle]LCGGG[Pra]-OH; thioether N-14),10 to 99
9,CCCC[C@H]1C(=O)N(C)[C@@H](CCCC)C(=O)N[C@@H](CC(C)C)C(=O)N[C@H](C(=O)NCC(=O)N[C@@H](CC(=O)O)C(=O)NCCCOCCOCCOCCCNC(=O)CC[C@H](NC(=O)CCCCCCCCCCCCCCCCC(=O)O)C(=O)O)CSCC(=O)N[C@@H](Cc2ccc(F)cc2)C(=O)N2CCCC[C@H]2C(=O)N[C@@H](CC(=O)O)C(=O)N2CCC[C@H]2C(=O)N[C@@H](CN)C(=O)N[C@@H](CCC(=O)O)C(=O)N2C[C@H](O)C[C@H]2C(=O)N[C@@H](Cc2c[nH]c3ccccc23)C(=O)N[C@@H](CCN)C(=O)N[C@@H](Cc2cn(CC(=O)O)c3ccccc23)C(=O)N1C [Example 11264] ({CH2CO}-[Phe(4-F)][Pip]DP[Dap]E[Hyp]W[Dab][Trp(1-CH2COOH)][NMeNle][NMeNle]LCGD-X6; thioether N-14),0.3 to 9.9
10,CCCC[C@H]1C(=O)N(C)[C@@H](CCCC)C(=O)N[C@@H](CC(C)C)C(=O)N[C@H](C(=O)NCC(=O)N[C@@H](CCC(=O)NC[C@H](NC(=O)CCCCCCCCCCCCCCCCC(=O)O)C(=O)O)C(=O)O)CSCC(=O)N[C@@H](Cc2ccc(O)cc2)C(=O)N(C)[C@@H](C)C(=O)N[C@@H](CC(N)=O)C(=O)N2CCC[C@H]2C(=O)N[C@@H](CN)C(=O)N[C@@H](CC(C)C)C(=O)N2C[C@H](O)C[C@H]2C(=O)N[C@@H](Cc2c[nH]c3ccccc23)C(=O)N[C@@H](CCN)C(=O)N[C@@H](Cc2cn(CC(=O)O)c3ccccc23)C(=O)N1C [Example 11173] ({CH2CO}-Y[NMeA]NP[Dap]L[Hyp]W[Dab][Trp(1-CH2COOH)][NMeNle][NMeNle]LCGE(Dap(Nα-HOOC(CH2)16CO)OH)-OH; thioether N-14),100 to 1600
11,C#CC[C@H](NC(=O)CNC(=O)[C@@H]1CSCC(=O)N[C@@H](Cc2ccc(O)cc2)C(=O)N(C)[C@@H](C)C(=O)N[C@@H](CC(=O)O)C(=O)N2CCC[C@H]2C(=O)N[C@@H](Cc2c[nH]cn2)C(=O)N[C@@H](CCCCN)C(=O)N2C[C@H](O)C[C@H]2C(=O)N[C@@H](Cc2c[nH]c3ccccc23)C(=O)N[C@@H](CCCCN)C(=O)N[C@@H](Cc2cn(CC(=O)O)c3ccccc23)C(=O)N(C)[C@@H](CCCC)C(=O)N(C)[C@@H](CCCC)C(=O)N[C@@H](CCC(=O)O)C(=O)N1)C(=O)NCC(N)=O [INT 1400D] ({CH2CO}-Y[NMeA]DPHK[Hyp]WK[Trp(1-CH2COOH)][NMeNle][NMeNle]ECG[Pra]G-NH2; thioether N-14),0.3 to 9.9
